According to patent US8268849B2, “Multifunctional Antioxidants and methods of use thereof” (priority 2007, dated 2012):
“Also recorded” adds a separate entry of the source.

Assays:
[1] = test system: SRA-1 human lens epithelial cells; assay: ROS staining (H2DCF-DA) in lens epithelial cells; assay type: cell-based; settings: 24 hour incubation, H2DCF-DA stain; for ROS staining, ROS initiated by homocysteine: 10 mM homocysteine (ER stress); for ROS staining, ROS generated by Fenton reaction: 0.1 mM Fe^2+ and 0.1 mM hydrogen peroxide
Experimental: The SRA-1 human lens epithelium cell line (Ibaraki et al. (1998) Exp. Eye Res., 67:577-85) was used to evaluate the antioxidant activity of JHX-1-8. These cells were cultured in DMEM media containing 10% fetal bovine serum (FBS), glutamine, NaHCO3, penicillin, and streptomycin at 37° C. in humidified atmosphere of 5% CO2 and 95% air until subconfluent (2-4 days). The cells were passaged when 80-90% confluent by treatment with trypsin-EDTA. The cells were plated at a density of 1×10^4 cells onto 96-well plates or 1×10^6 cells onto 100-mm dishes. ROS levels/effects in cells treated with JHX-1-8 were compared to similar cells treated with the water soluble Vitamin E derivative, Trolox (antioxidant control) or no drug (control).
The compounds were initially screened for antioxidant activity in 24 hour cultured SRA-1 human lens epithelial cells. Reactive oxygen species (ROS) in these cells were generated through both the Fenton reaction in which 0.1 mM Fe^2+ and 0.1 mM hydrogen peroxide were added to the culture media, or by culturing the lens with 10 mM homocysteine which induces endoplasmic reticular (ER) stress that results in the unfolded protein response (UPR) that subsequently generates the ROS. ROS were visualized with 2′,7′-dichlorodihydrofluorescein diacetate (DCF) staining. More specifically, after 24 hours of incubation, all cells were washed 2× with PBS and then incubated at room temperature for 1 hour with 10 μM H2DCF-DA (Invitrogen) stain. Fluorescent ROS staining was analyzed by quantifying pixel intensities of images obtained by fluorescent microscopy. As illustrated below in FIGS. 4A and 4B, compounds with chelating groups only produced a dose-dependent reduction in Fenton Reaction generated ROS. […] Indeed, homocysteine activates ER stress which subsequently initiates ROS through an Unfolded Protein Response (UPR).

[2] = test system: SRA-1 human lens epithelium cell line; assay: MTS cell viability assay; assay type: cell-based; settings: 1 mM compound; for protection against H2O2 induced loss of cell viability: 1.0 mM H2O2, 2 hours
Experimental: The SRA-1 human lens epithelium cell line (Ibaraki et al. (1998) Exp. Eye Res., 67:577-85) was used to evaluate the antioxidant activity of JHX-1-8. […] The cells were passaged when 80-90% confluent by treatment with trypsin-EDTA. The cells were plated at a density of 1×10^4 cells onto 96-well plates or 1×10^6 cells onto 100-mm dishes. ROS levels/effects in cells treated with JHX-1-8 were compared to similar cells treated with the water soluble Vitamin E derivative, Trolox (antioxidant control) or no drug (control). […] Cells were cultured in 96-well plates and exposed for 2 hours to media containing 1.0 mM H2O2 (FIG. 5A) or Fenton reagents (1.0 mM H2O2 and 1.0 mM Fe^2+, FIG. 5B) with/without 1 mM JHX-1-8 or Trolox. Viability was measured as the absorbance of MTS stain at 490 nm 1 hour after the addition of 20 μL of […] AQueous One Solution Cell Proliferation Assay to each well. The results were normalized to blank control (100%) since absorbance is directly proportional to the living cell population.

[3] = Chelation study by ESI-MS, Mg^2+ solution; assay type: binding; settings: 10:1 metal:compound, 45 minutes of mixing
Experimental: (§1) The relative amount of ions bound by JHX-1-JHX-8 was determined by electrospray ionization mass spectrometry (ESI-MS) according to the method of Baron and Hering (Baron and Hering (1998) Spectrometry J. Environ. Qual., 27:844-850). In this method solutions containing Fe^2+, Fe^3+, Cu^1+, Cu^2+, Zn^2+, Ca^2+, Mg^2+ were mixed with compound in ratios of 10:1, 1:1, and 1:10. After 45 minutes of mixing, each solution was directly infused into the MS with constant ionization energy and the relative decreases of the parent peaks in these solutions were determined. […] FIG. 3 illustrates ion binding with increased Fe^+2 concentrations results in decreased compound parent peak heights by ESI-MS when compounds contain appropriate functional groups for metal ion chelation.

[4] = Chelation study by ESI-MS, Cu^2+ solution; assay type: binding; settings: 10:1 metal:compound, 45 minutes of mixing
Experimental: as §1

[5] = Chelation study by ESI-MS, Fe^3+ solution; assay type: binding; settings: 10:1 metal:compound, 45 minutes of mixing
Experimental: as §1

[6] = Chelation study by ESI-MS, Cu^1+ solution; assay type: binding; settings: 10:1 metal:compound, 45 minutes of mixing
Experimental: as §1

[7] = Chelation study by ESI-MS, Zn^2+ solution; assay type: binding; settings: 10:1 metal:compound, 45 minutes of mixing
Experimental: as §1

[8] = Chelation study by ESI-MS, Ca^2+ solution; assay type: binding; settings: 10:1 metal:compound, 45 minutes of mixing
Experimental: as §1

[9] = Chelation study by ESI-MS, Fe^2+ solution; assay type: binding; settings: 10:1 metal:compound, 45 minutes of mixing
Experimental: as §1

[10] = test system: diabetic cataract formation; assay: Cataract formation in diabetic rats; assay type: in vivo; settings: streptozotocin diabetic rats
Experimental: Diabetes was induced in 100 g Sprague Dawley rats with streptozotocin injection (75 mg/kg) and all rats with blood sugar levels >300 mg/dL were divided into 4 groups of 8 rats each. One group received only standard rat chow (untreated diabetic) while each of the other groups received chow containing either 0.0125% ARI Al1576, 0.025% JHX-4 or 0.025% JHX-8. Lens changes were monitored by at 3-5 day intervals by slit lamp following tropicamide mydriasis. As summarized in FIGS. 8A-8C, vacuole formation began by 14 days in the untreated diabetic group with cortical opacities observed by 29 days and mature cataracts by 44 days. […] In the two antioxidant treated groups, vacuole formation was delayed by 19 and 11 days by JHX-4 and JHX-8, respectively, and cortical cataracts by 9 and 3 days, respectively. At the end of the study (47 days) all rats were equally diabetic with HbA1C levels >11.9%. All eyes were enucleated and lens sorbitol levels were measured as previously described (Kador et al. (2007) J. Ocul. Pharmacol. Ther., 23:116-23). […] Tissue levels of JHX-4 and -8 in the lens, neural retina and brain were determined after 47 days of feeding as described above (FIG. 10). […] Overall drug levels in both the lens and retina were ca. 3-fold higher in the diabetic rats with brain levels also now present. This increase may be due to either an accumulation of drug, or increased permeability of tissues and the BBB to drug in streptozotocin diabetic rats (Mooradian et al. (2005) Diabetes, 54:2977-82).

[11] = Gino et al. (2001); cited from earlier work
[12] = Gino et al. (2001); cited from earlier work; remark: listed apart in the source
[13] = Chelation studies by ESI-MS, overall statement on ion binding; settings: binding order Cu^1+=Cu^2+>Fe^2+=Fe^3+>Zn^2+; no binding with Ca^2+ or Mg^2+
Experimental: as §1

Row | Compound | % Parent Peak Remaining at 10:1 Solution of Metal:Compound [3] [%] | % Parent Peak Remaining at 10:1 Solution of Metal:Compound [4] [%] | % Parent Peak Remaining at 10:1 Solution of Metal:Compound [5] [%] | % Parent Peak Remaining at 10:1 Solution of Metal:Compound [6] [%] | % Parent Peak Remaining at 10:1 Solution of Metal:Compound [7] [%] | % Parent Peak Remaining at 10:1 Solution of Metal:Compound [8] [%] | % Parent Peak Remaining at 10:1 Solution of Metal:Compound [9] [%] | ROS staining, ROS initiated by homocysteine [1] | protection against H2O2 induced loss of cell viability [2] | lens changes by slit lamp ([10]; 0.0125% in chow, 47 days) | lens sorbitol levels ([10]; end of study (47 days)) | reactivity to peroxy radicals compared to α-tocopherol [11] | reactivity toward alkyl radicals compared to α-tocopherol [12] [fold] | increase of HLEC viability compared to controls ([2]; Fenton reagents (1.0 mM H2O2 and 1.0 mM Fe^2+), 2 hours) [%] | ROS staining, ROS generated by Fenton reaction [1] | ion binding [13]
1 | O=C1NC(=O)C2(N1)c1cc(F)ccc1-c1ccc(F)cc12 [AL1576, reference compound] | – | – | – | – | – | – | – | – | – | No lens changes were observed | No sorbitol was present | – | – | – | – | –
2 | Cc1nc(N(C)C)nc(C)c1O [2-N,N-Dimethyl-4,6-dimethyl-5-hydroxypyrimidine] | – | – | – | – | – | – | – | – | – | – | – | essentially equally reactive | 5 | – | – | –
3 | Cc1c(C)c2c(c(C)c1O)CCC(C)(C(=O)O)O2 (stereo not shown) [Trolox, reference compound] | – | – | – | – | – | – | – | – | – | – | – | – | – | 15 | – | –

Further lines, with some results ahead:

Row | % Parent Peak Remaining at 10:1 Solution of Metal:Compound [3] [%] | % Parent Peak Remaining at 10:1 Solution of Metal:Compound [4] [%] | % Parent Peak Remaining at 10:1 Solution of Metal:Compound [5] [%] | % Parent Peak Remaining at 10:1 Solution of Metal:Compound [6] [%] | % Parent Peak Remaining at 10:1 Solution of Metal:Compound [7] [%] | % Parent Peak Remaining at 10:1 Solution of Metal:Compound [8] [%] | % Parent Peak Remaining at 10:1 Solution of Metal:Compound [9] [%] | Compound | ROS staining, ROS initiated by homocysteine [1] | protection against H2O2 induced loss of cell viability [2] | lens changes by slit lamp ([10]; 0.0125% in chow, 47 days) | lens sorbitol levels ([10]; end of study (47 days)) | reactivity to peroxy radicals compared to α-tocopherol [11] | reactivity toward alkyl radicals compared to α-tocopherol [12] [fold] | increase of HLEC viability compared to controls ([2]; Fenton reagents (1.0 mM H2O2 and 1.0 mM Fe^2+), 2 hours) [%] | ROS staining, ROS generated by Fenton reaction [1] | ion binding [13]
4 | 100.0 | 100.0 | 100.0 | 100.0 | 100.0 | 100.0 | 100.0 | CN(C)S(=O)(=O)N1CCN(c2ncc(O)cn2)CC1 [JHX-2, 1-N,N′-dimethylsulfamoyl-4-(5-hydroxy-2-pyrimidyl)piperazine] | reduced ROS staining similar to that with Trolox | protecting against H2O2 induced loss of cell viability | – | – | – | – | – | – | –
5 | 100.0 | 100.0 | 100.0 | 100.0 | 100.0 | 100.0 | 100.0 | COc1cc(OC)nc(N2CCN(S(=O)(=O)N(C)C)CC2)n1 [JHX-5, 1-N,N′-dimethylsulfamoyl-4-(4,6-dimethoxy-2-pyrimidyl)piperazine] | – | – | – | – | – | – | – | – | –
6 | 100.0 | 100.0 | 100.0 | 100.0 | 100.0 | 100.0 | 100.0 | COc1nc(N2CCN(S(=O)(=O)N(C)C)CC2)nc(OC)c1O [JHX-6, 1-N,N′-dimethylsulfamoyl-4-(4,6-dimethoxy-5-hydroxy-2-pyrimidyl)piperazine] | reduced ROS staining similar to that with Trolox | protecting against H2O2 induced loss of cell viability | – | – | – | – | – | – | –
7 | 100.0 | 100.0 | 100.0 | 100.0 | 100.0 | 100.0 | 100.0 | CN(C)S(=O)(=O)N1CCN(c2ncccn2)CC1 [JHX-1, 1-N,N′-dimethylsulfamoyl-4-(2-pyrimidyl)piperazine] | – | – | – | – | – | – | – | – | –
8 | 100.0 | 3.4 | 7.6 | 4.1 | 13.8 | 100.0 | 7.3 | COc1cc(OC)nc(N2CC(=O)N(S(=O)(=O)N(C)C)C(=O)C2)n1 [JHX-7, 1-N,N′-dimethylsulfamoyl-4-(4,6-dimethoxy-2-pyrimidyl)piperazine-2,6-dione] | – | – | – | – | – | – | – | decreased staining; also recorded: protected against ROS | bind ions
9 | 100.0 | 4.4 | 10.0 | 3.6 | 15.3 | 100.0 | 8.1 | CN(C)S(=O)(=O)N1C(=O)CN(c2ncccn2)CC1=O [JHX-3, 1-N,N′-dimethylsulfamoyl-4-(2-pyrimidyl)piperazine-2,6-dione] | – | – | – | – | – | – | – | decreased staining; also recorded: protected against ROS | bind ions
